Data on three compounds can be found in patent US20260223837A1, “NATURAL LIPID PARTICLE FORMULATIONS FOR AGRICULTURAL APPLICATIONS” (INVAIO SCIENCES, INC., priority 2023, published 2026).

Molecules are shown by their SMILES.

One data set concerns Fusarium oxysporum. The data set can be described thus: Resazurin based Fusarium inhibition assay. In kind it is cell-based. The following applies: 24 hr incubation, compared to negative controls (DMSO). As to the method: The purpose of this assay was to quantify the effect of encapsulation of AZO, an antifungal agent, in NLP particles on its efficacy against a fungal pathogen (e.g., Fusarium oxysporum). Encapsulated AZO was compared to unencapsulated counterparts to determine if there is any change in efficacy. Formulations were tested in a 96-well plate and incubated with F. oxysporum conidia (spores) for 24 hr, after which resazurin dye was added. After 4 hr of incubation the color change of resazurin from blue to a fluorescent pink due to fungal respiration was assessed spectrophotometrically and the percent inhibition of respiration, as a measure of fungal growth, was determined by comparison to a conidia-only negative control. […] Fusarium oxysporum was cultured on 50% potato dextrose broth (PDB) agar plates. Using a pipette tip, a small mycelium aliquot was transferred to a 50-mL flask containing carboyxymethyl cellulose medium (CMC). […] Conidia were counted in the resuspended pellet using a hemocytometer, and diluted to 1×10^6 conidia/mL in 20% glycerol solution, from which a 1×10^5 conidia/mL working solution was prepared. […] After 24 h, 10 μL of PrestoBlue reagent was added to each well of the plate, followed by 4 h incubation, after which the fluorescence was read at 570/620 nm with a read height of 7 mm.
In general terms: Alamar Blue is a resazurin reagent that responds to reducing activity.

Another data set concerns tomato hornworm (THW). The data set can be described thus: Tomato seed priming, tomato hornworm infestation. It counts as in vivo. The following applies: seed priming 24 hr. As to the method:
Tomato seeds are surface-sterilized by 1 ml 25% Bleach with 0.025% Triton X-100 in 1.5 ml centrifuge tube, then washed 3 times with 1 ml sterile water. Tomato seeds (N=50) are primed in 0.3 ml of below treatment solutions in a 1.5 ml centrifuge tube for 24 hr.
The primed tomato seeds (N=14) are germinated and grown on a precut mesh (0.08″×0.025″ Opening; Mcmaster-Carr) in 20 ml half strength Murashige and Skoog Basal Medium (MP Bio, Cat #0926231—CF) in a deep petri dish (100 mm×25 mm). The petri dishes are placed in large plastic container (236 Oz) with holes on both sides of the container and 100 ml MilliQ water to maintain high humidity. The containers are placed in a Percival incubator (about 25° C., 50% relative humidity). After 10 days, the mesh along with the seedlings on it is moved from the petri dish containing half strength MS media and excess media on mesh is dried by damping the roots on paper towels. After 3 days, the mesh with seedlings is removed from the petri dish and the roots are washed twice with MilliQ water and placed on paper towel to blot off excess water. The mesh with tomato seedlings is transferred to a new petri dish with 25 ml of 1% Phytagel (P8169-1 KG, Sigma-Aldrich). […]
The insect mortality is scored after 2 days, and the mortality is normalized against negative control (water treatment) to calculate the % larval control.

Another data set relates to fall army worms (FAW). The data set can be described thus: Corn seedling root application, fall army worm infestation. The following applies: for plant mass / fresh weight: in vivo; for FAW mortality: two days post-infestation. In kind it is in vivo. As to the method:
Two hundred corn seeds of the MBS Hybrid line are sterilized in 15% bleach sterilization solution by placing 50 seeds each in 4 separate 50 mL Falcon tubes and adding 25 mL sterilization solution into each tube. The tubes containing seeds are shaken on an orbital shaker at low speed for 15 min, after which the seeds are rinsed 3 times with sterile MilliQ water in the biological safety cabinet to ensure sterility. Six seeds are then selected from each tube and placed into CYG germination pouches (PhytoAB ca #CYG-38 LB) with 50 ml of sterile DI water. Seeds are allowed to germinate in the dark for 3 days at 25° C. and 60% relative humidity. After 3 days seedlings are moved to climate-controlled chambers with a light: dark cycle of 16:8 at 25° C. and 60% RH. At this time 25 ml of treatment solutions suspended in Hoagland's solution (Sigma-Alderich H2395-1L, 1.3 g/L, pH 6.5) are added to germination pouches. […] Seedlings are allowed to grow and uptake solution for 3 days before FAW infestation.
Six-day-old plants are infested with non-diapausing FAW at a rate of two 2nd instar larvae per plant. […] Before infestation germination pouches are sealed to prevent FAW from making direct contact with nutrient and NLP solutions. FAW are then allowed to feed on plants for a duration of 2 days in a Percival incubator (25° C., 50% RH, 16:8 Light: dark cycle).
FAW mortality is scored two days post-infestation by removing larvae from plants and probing 3 times. Larvae that are unresponsive to probing or not recovered are considered dead and the proportion of surviving larvae over initial infestation numbers are compared across treatments. Plant mass is also recorded by weighing individual seedlings after larvae are removed and average mass of seedlings are compared across treatments.

For a further data set, the system named is whiteflies. The data set can be described thus: Tomato seedling root treatment, whitefly exposure. In kind it is in vivo. As to conditions: after 7 days. As to the method: Tomato seeds (N=14) are germinated and grown on a precut mesh (0.08″×0.025″ Opening; Mcmaster-Carr, Cat #1100T45) in 20 ml ½ MS media ([…] filtered without sucrose added) in a deep petri dish (100 mm×25 mm). The petri dishes are placed in a large plastic container (Sistema; 236 Oz) with holes on both sides of the container and 100 ml MilliQ water to maintain high humidity. Large plastic containers are placed in a Percival incubator (25° C., 50% RH). After 10 days, the mesh along with the seedlings on it is moved from the petri dish containing half strength MS media, and excess media on mesh is dried by blotting the roots on paper towels. […] After 3 days, the mesh with seedlings is taken out of petri dish and the roots are washed with MilliQ water 2 times and placed on a paper towel to blot off excess water. The mesh with tomato seedlings is transferred to a new petri dish with 25 ml of 1% phytogel (P8169-1 KG, Sigma-Aldrich).
From a whitefly infested plant in a rearing cage, leaves that are infested with about 200 white flies are excised using scissors and placed in a petri dish. The petri dish is placed at the base of the tomato plants on the phytagel taking care to not damage the tomato plant roots. The boxes with the tomato plant and the whiteflies are placed in an incubator with 16 h light/8 hr dark photoperiod, 26° C. and 50% humidity. […]

The subject of the next data set is Tomato Horn Worm (THW). The data set can be described thus: Tomato seedling root uptake assay followed by THW infestation. The following applies: in vivo. As to the method:
Tomato seeds (N=14) were germinated and grown on a precut mesh (0.08″×0.025″ Opening; Mcmaster-Carr, Cat #1100T45) in 20 ml 0.5×MS media ([…] filtered without sucrose added) in a deep petri dish (100 mm×25 mm). The petri dishes were placed in a plastic container (236 Oz) with holes on both sides of the container and 100 ml MilliQ water to maintain high humidity. The plastic containers with plants were placed in a Percival incubator (25° C., 50% relative humidity).
After 10 days, the mesh along with the seedlings on it was moved from the petri dish containing 0.5×MS media and excess media on mesh was dried by damping the roots on paper towels. The seedlings on the mesh were placed in a new deep petri dish containing formulation solution (20 ml) in the same large plastic container and Percival incubator. […] After 3 days, the mesh with seedlings was taken out of petri dish and the roots were washed with MilliQ water 2 times and placed on a paper towel to blot off excess water. […]
Five THW larvae were placed on the tomato seedlings on mesh in each petri dish and the petri dish was placed in a large plastic container (101 Oz). The insect mortality was scored after 2 days, and the mortality was normalized against negative control (water treatment) to calculate the % larval control.

Data set [1] in a line: UV stability assay of deltamethrin in NLPs. In kind it is physicochemical. An excerpt:
In addition, the four NLP formulations were also mixed with lignosulfonate (Borresperse NA, Borregaard), a widely used UV absorption agent at 3% final concentration, ten samples were exposed to UV light, and ten represented control samples that were not exposed to UV light.
For the samples to be exposed to UV exposure, the cap of the Eppendorf tube was removed, and a single layer of Saran wrap (SC Johnson) was pulled across the top and secured with a rubber band. For the control samples, the Eppendorf tube was capped and wrapped entirely in aluminum foil to completely block UV radiation.
All samples were placed 15 cm below the UV light (Hortilux PowerVEG Full Spectrum with UV Bulb, Growershouse, Cat #901678) with the UV radiation intensity at round 150 milliwatts per square centimeter (mW/cm^2). For each treatment, two samples were analyzed by LC-MS at t=0 (immediately after preparation), at day 1, day 2, day 3, and day 6. For each timepoint two UV samples and 2 control samples were removed for analysis by LC-MS/MS. Prior to analysis, the samples were diluted to 1 ml with methanol in the original 2 mL Eppendorf tubes. A further 100× dilution was performed in methanol and the samples were transferred to HPLC vials for analysis by LC-MS.

In data set [2] the test system is WCRW. The data set can be described thus: Small scale (green house 10 inch pot) in-furrow assay and dose-response. In kind it is in vivo, western corn rootworm (WCRW). The following applies: 2 mg/ml DE, in-furrow 3 ml, day 28. As to the method:
Jumbo cotton balls were packed into the bottom of 10″ tall and 2.7″ diameter cylindrical containers. Wide straws were inserted for later use during the infestation process, then packed with ~660 g of silt loam soil. Soil was then watered with about 150 ml of water in three 50 ml increments 24 hrs before planting. A hole was made at a depth of 1.5 inch from the top of the soil. […] The particle size, PDI and zeta potential of these NLPs are similar to those prepared with 80 ug/ml of DE in the suspension (Table 8). The treatments were added around the edge of the hole for planting. A seed was then planted in the hole and covered with soil. Containers with seeds were then placed in the greenhouse to continue growing for 7 days until ready for infestation.
2nd instar WCRW larvae were shipped from the supplier (Crop Characteristic Inc., Farmington, MN USA) and stored at 10° C. until ready for use (less than a week). The 1st and 2nd infestations were conducted 7 and 14 days after seed planting, respectively. For each infestation, approximately 10 larvae were transferred to 0.5 ml microcentrifuge tube and released into soil via dropping the tube with the open mouth facing down into straws inserted when the pots were filled with soil. […]
The fresh weight for each whole seedling was measured using a scale and recorded.

The subject of data set [3] is WCRW. The data set can be described thus: Field-scale in-furrow treatment, open field trial (Example 53). It counts as in vivo, western corn rootworm (WCRW). The following applies: 2 mg/ml.
Data set [4] relates to Colorado Potato Beetle (CPB). The data set can be described thus: Tomato seedling root uptake assay followed by CPB infestation. As to conditions: 160 ug/ml in DCM.

On to `CO/C=C(/C(=O)OC)c1ccccc1Oc1cc(Oc2ccccc2C#N)ncn1` [azoxystrobin], for which the “minimum amount required for >90% inhibition of Fusarium” value in the data set with Fusarium oxysporum was 5 µg/mL.
Take `CN/C(=N\[N+](=O)[O-])NCc1cnc(Cl)s1` [clothianidin]: the “insect mortality and stunting” value in the data set on tomato hornworm (THW) is “significantly higher mortality and stunting”. In the data set on fall army worms (FAW), the “plant mass / fresh weight” value was “plant mass is the highest” and the FAW mortality entry is given as “FAW mortality is the highest”. In the data set with whiteflies, the “number of live whiteflies” value is listed as “significantly lower”.
For the compound `CC1(C)[C@H](C(=O)O[C@H](C#N)c2cccc(Oc3ccccc3)c2)[C@@H]1C=C(Br)Br` [Deltamethrin], the phytotoxicity result in the data set with Tomato Horn Worm (THW) was “phytotoxicity (wilting and chlorosis of plant tissue)”. In the data set on fall army worms (FAW), the “plant mass / fresh weight” value was “fresh weight comparable to the water treated plants” and the FAW mortality entry is given as “none or very low mortality”. Besides, the “Repeat 1 (deltamethrin concentration)” value in data set [1] (Repeat 1, initial concentration, LC-MS) came to 104 µg/mL. For the same compound, the “Repeat 2 (deltamethrin concentration)” value in [1] (Repeat 2, initial concentration, LC-MS) was found to be 114 µg/mL. For the same compound, in data set [1] (after 6 days of UV exposure (figure legend)), the “deltamethrin retention rate (actual deltamethrin/input deltamethrin)” value is on record as 15%. The “Initial deltamethrin Concentration” value in data set [1] (mean of Repeat 1 and 2, LC-MS at t=0, before UV exposure) was determined as 109 µg/mL. Besides, the “protection of whole plant mass and root mass from WCRW” value in the data set on WCRW [2] was “less effective in protecting whole plant mass”. In addition, the “root injury rating (0 to 3)” value with WCRW [3] was “higher root damage than the NLP644 comprising deltamethrin at 2 mg/ml treatment”. Moreover, the “phytotoxicity to tomato seedlings” value in data set [4] was “caused phytotoxicity to the tomato seedlings”.
